In patent US20120165309A1, “HETERO RING DERIVATIVE” (Astellas Pharma Inc., priority 2009, published 2012):
Counter-ions that a name gives are not always drawn.

Tests used:
IL-2 production = assay: Rat in vivo IL-2 production inhibition test (Concanavalin A induced); conditions: po, male LEW/CrlCrlj rats, 10 mg/kg orally, 2 hours before Concanavalin A 15 mg/kg i.v., blood IL-2 at 3 hours after Concanavalin A, read-out: IL-2 production inhibition activity (inhibition rate vs vehicle control)
Description: 3. Rat In vivo IL-2 Production Inhibition Test
For the experiment, male LEW/CrlCrlj rats (Charles River Laboratories, Japan, Inc.) (6-week old, body weight 130 to 180 g) were used. The test compound was suspended in a 0.5% methyl cellulose solution and orally administered at 5 mL/kg. IL-2 production was induced by tail vein injection of Concanavalin A (Funakoshi Corporation, Catalogue No. L-1000) at a dose of 15 mg/kg.
The test was carried out according to the protocol shown below. At 2 hours or 16 hours before administration of Concanavalin A, the test compound was orally administered to rats. At 3 hours after administration of Concanavalin A, blood was collected. The IL-2 concentration in blood was quantified using an ELISA kit (R&D Systems, Inc., Catalogue No. DY502E). An inhibition rate was calculated from the amount of IL-2 produced in a group administered with the test compound with respect to the amount of the IL-2 produced of a control group administered with a vehicle.

[1] = tested on: Spleen cells (B cell proliferation); assay: Rat B cell proliferation inhibition test (anti-rat IgM, [3H]thymidine); type: cell-based; conditions: anti-rat IgM 3 μg/well, 48 hours culture, [3H]thymidine uptake
Description: 4. Rat B Cell Proliferation Inhibition Test
Spleen cells (1.0×10^5 cells/well) prepared from male LEW/CrlCrlj rats (Charles River Laboratories, Japan, Inc.), mouse F(ab′)2 fragment anti-rat IgM (3 μg/well, SouthernBiotech Associates, Inc., Catalogue No. 3082-14) and the test compound dissolved in DMSO (final DMSO concentration 0.1%) were mixed in a 96-well plate using a 10% FCS-containing RPMI-1640 culture medium (total 200 μL). They were cultured in a CO2 incubator for 48 hours and [^3H]thymidine (925 GBq/mmol, Moravek Biochemicals, Inc., Catalogue No. MT6038) was added thereto at 0.037 MBq/well at 4 hours before completion of culture. Cells were harvested in a GF/C glass filter using a cell harvester, and a radioactivity on the filter was measured using a liquid scintillation counter. The IC50 value of the compound was calculated, taking the dpm (disintegration per minute) without addition of IgM as an inhibition rate of 100% and the dpm without addition of the test compound as an inhibition rate of 0%, by a logistic method.

Human PI3Kα = target: T1, Human PI3Kα (Homo sapiens, UniProt P42336); assay: PI3Kα enzyme inhibitory activity (Kinase-Glo Plus luminescence); type: biochemical; conditions: Human PI3Kα 12 ng/well, phosphatidylinositol 0.2 μg/well, 37° C. for 3 hours
T1 construct: purchased Millipore Corporation 14-602
Description: 2. PI3Kα Enzyme Inhibitory Activity
Human PI3Kα (12 ng/well, Millipore Corporation, Catalogue No. 14-602), phosphatidylinositol (0.2 μg/well), and the test compound were mixed in a 384-well plate in a reaction buffer (50 mM Hepes, 10 mM NaCl, 10 mM MgCl2, 2 mM EGTA, 2 mM DTT, pH 7.3) (total 10 μl), and incubated at 37° C. for 3 hours. After the reaction, 10 μL of a Kinase-Glo Plus reagent (Promega, Catalogue No. V3772) was added thereto, and a luminescence was measured with a luminometer. The IC50 value of the compound was calculated, taking the inhibition rate without addition of the enzyme as 100% and the inhibition rate without addition of the test compound as 0%, by a logistic method.
(§1) In the Table, Ex represents Example Compound No. as described later, PI3Kδ represents the IC50 value (nM) of a PI3Kδ enzyme inhibitory activity, and PI3Kα represents the IC50 value (nM) of a PI3Kα enzyme inhibitory activity.

human PI3Kδ enzyme = target: T2, human PI3Kδ enzyme (Homo sapiens, UniProt O00329); assay: PI3Kδ enzyme inhibitory activity (PI3-Kinase HTRF Assay kit); type: biochemical; conditions: human PI3Kδ 10 ng/well, ATP 30 μM, PIP2 10 μM, room temperature 30 minutes
T2 construct: purchased Millipore Corporation 14-604
Description: 1. PI3Kδ Enzyme Inhibitory Activity
For the experiment, a PI3-Kinase HTRF Assay kit (Millipore Corporation, Catalogue No. 33-016) and a human PI3Kδ enzyme (Millipore Corporation, Catalogue No. 14-604) were used. The measurement method was in accordance with the appended instructions. The overview thereof is as follows.
PI3Kδ (10 ng/well), phosphatidylinositol-4,5-bisphosphate (10 μM), ATP (30 μM), and the test compound were mixed in a 384-well plate (total 20 μL), and incubated at room temperature for 30 minutes. EDTA and biotinylated phosphatidylinositol-3,4,5-triphosphate were added thereto to stop the reaction. Thereafter, a Europium labeled anti-GST antibody, a GST bond GRP1 PH domain, and streptavidin-APC were added thereto, followed by incubation overnight. An HTRF ratio was measured using an HTRF plate reader. The IC50 value of the compound was calculated, taking the inhibition rate without addition of the enzyme as 100% and the inhibition rate without addition of the test compound as 0%, by means of a logistic method.
as §1

T1 sequence (P42336 whole entry): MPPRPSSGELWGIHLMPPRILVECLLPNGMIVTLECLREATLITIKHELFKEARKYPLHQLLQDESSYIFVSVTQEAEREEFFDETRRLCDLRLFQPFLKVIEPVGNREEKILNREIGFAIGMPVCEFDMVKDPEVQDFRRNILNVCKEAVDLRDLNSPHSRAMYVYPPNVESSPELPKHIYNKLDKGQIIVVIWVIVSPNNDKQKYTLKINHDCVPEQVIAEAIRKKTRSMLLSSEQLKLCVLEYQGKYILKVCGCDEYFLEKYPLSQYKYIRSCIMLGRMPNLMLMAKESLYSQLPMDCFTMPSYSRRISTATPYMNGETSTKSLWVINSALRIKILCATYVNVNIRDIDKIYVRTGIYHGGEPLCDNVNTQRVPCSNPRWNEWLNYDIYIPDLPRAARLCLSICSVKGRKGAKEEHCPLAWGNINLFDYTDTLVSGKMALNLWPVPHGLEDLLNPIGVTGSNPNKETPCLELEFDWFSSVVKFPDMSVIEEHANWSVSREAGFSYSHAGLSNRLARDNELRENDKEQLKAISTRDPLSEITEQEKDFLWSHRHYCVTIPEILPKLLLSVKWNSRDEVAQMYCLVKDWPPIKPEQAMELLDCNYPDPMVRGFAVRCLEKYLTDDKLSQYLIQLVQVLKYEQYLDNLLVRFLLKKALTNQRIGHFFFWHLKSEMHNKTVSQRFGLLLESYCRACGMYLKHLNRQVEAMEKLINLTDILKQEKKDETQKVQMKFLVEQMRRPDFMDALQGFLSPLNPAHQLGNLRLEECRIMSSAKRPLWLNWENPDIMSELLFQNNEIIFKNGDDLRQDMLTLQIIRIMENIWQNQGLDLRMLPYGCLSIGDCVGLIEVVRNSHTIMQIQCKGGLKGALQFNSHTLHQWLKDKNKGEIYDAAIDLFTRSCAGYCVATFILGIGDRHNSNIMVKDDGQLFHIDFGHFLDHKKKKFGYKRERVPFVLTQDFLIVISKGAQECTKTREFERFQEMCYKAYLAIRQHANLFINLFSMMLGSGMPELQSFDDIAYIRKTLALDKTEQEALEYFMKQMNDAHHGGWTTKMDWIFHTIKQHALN
T1 sequence (P27986 whole entry partner): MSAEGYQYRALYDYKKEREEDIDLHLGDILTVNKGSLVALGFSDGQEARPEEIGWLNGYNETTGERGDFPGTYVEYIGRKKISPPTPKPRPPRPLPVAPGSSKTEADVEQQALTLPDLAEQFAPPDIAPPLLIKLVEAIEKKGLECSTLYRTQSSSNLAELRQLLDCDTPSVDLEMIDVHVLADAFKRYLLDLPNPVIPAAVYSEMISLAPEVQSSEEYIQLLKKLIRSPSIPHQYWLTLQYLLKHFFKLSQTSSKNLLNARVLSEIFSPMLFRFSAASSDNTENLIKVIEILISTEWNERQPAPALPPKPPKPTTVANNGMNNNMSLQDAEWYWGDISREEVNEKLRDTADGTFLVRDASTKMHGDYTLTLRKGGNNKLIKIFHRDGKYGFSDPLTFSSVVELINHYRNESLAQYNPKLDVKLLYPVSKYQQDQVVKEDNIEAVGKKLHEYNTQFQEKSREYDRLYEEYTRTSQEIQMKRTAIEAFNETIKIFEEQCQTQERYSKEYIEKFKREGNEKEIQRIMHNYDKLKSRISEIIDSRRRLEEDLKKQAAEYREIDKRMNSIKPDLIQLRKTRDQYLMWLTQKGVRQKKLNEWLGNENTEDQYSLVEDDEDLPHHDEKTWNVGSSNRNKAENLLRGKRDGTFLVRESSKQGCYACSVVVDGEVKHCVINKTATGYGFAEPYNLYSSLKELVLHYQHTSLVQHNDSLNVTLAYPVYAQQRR
T2 sequence (O00329 whole entry): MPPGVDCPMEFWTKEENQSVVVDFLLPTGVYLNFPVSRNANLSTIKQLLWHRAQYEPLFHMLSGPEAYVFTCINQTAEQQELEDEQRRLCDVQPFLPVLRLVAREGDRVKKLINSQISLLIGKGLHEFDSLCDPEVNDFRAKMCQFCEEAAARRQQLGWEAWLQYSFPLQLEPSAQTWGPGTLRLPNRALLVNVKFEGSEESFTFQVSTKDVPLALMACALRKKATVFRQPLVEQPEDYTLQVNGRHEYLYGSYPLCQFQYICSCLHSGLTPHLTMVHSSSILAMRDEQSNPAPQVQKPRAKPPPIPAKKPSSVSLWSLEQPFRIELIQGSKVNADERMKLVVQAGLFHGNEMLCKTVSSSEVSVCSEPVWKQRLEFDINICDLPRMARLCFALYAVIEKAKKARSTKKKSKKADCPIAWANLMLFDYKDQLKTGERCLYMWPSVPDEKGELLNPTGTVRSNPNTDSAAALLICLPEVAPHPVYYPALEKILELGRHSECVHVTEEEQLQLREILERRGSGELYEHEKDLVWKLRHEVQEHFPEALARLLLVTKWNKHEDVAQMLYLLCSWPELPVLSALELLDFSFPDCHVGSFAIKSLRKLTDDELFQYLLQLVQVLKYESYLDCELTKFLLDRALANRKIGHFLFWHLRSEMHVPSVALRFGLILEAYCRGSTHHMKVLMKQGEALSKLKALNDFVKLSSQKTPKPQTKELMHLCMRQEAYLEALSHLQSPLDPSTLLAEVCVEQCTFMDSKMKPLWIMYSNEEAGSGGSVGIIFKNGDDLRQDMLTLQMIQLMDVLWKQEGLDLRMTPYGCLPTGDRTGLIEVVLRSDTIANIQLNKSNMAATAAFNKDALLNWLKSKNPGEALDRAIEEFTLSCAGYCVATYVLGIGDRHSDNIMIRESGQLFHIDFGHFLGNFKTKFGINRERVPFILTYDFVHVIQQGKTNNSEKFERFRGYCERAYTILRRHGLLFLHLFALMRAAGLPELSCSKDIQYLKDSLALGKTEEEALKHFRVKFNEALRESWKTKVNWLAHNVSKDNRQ
T2 sequence (P27986 whole entry partner): as the sequence (P27986 whole entry partner) above

Row | SMILES | inhibition in vivo at 10 mg/kg (IL-2 production) | IC50 [1] | IC50 (Human PI3Kα) | IC50 (human PI3Kδ enzyme)
1 | CN(C)CC(=O)N[C@H]1CC[C@H](Nc2cc(-n3c(C(F)F)nc4ccccc43)nc(N3CCOCC3)n2)CC1 [Example 46] | 71% | 5.2 nM | > 3000 nM | 44 nM
2 | CC(=O)N[C@H]1CC[C@H](Nc2nc(N3CCOCC3)cc(-n3c(C(F)F)nc4ccccc43)n2)CC1 [Example 194] | 89% | – | – | –
3 | O=C1CCCN1[C@H]1CC[C@H](Nc2nc(N3CCOCC3)cc(-n3c(C(F)F)nc4ccccc43)n2)CC1 [Example 11, 1-[trans-4-({4-[2-(difluoromethyl)-1H-benzimidazol-1-yl]-6-morpholin-4-ylpyrimidin-2-yl}amino)cyclohexyl]pyrrolidin-2-one] | 80% | 6.1 nM | 930 nM | 14 nM
4 | COCCN(C)[C@H]1CC[C@H](CNc2nc(N3CCOCC3)cc(-n3c(C(F)F)nc4ccccc43)n2)CC1 [Example 219] | 78% | 3.5 nM | 6000 nM | 14 nM
5 | CN(C)CC(=O)N[C@H]1CC[C@H](Nc2nc(N3CCOCC3)nc(-n3c(C(F)F)nc4ccccc43)n2)CC1 [Example 40] | 94% | – | 1200 nM | –
6 | CN(CCF)[C@H]1CC[C@H](CNc2nc(N3CCOCC3)cc(-n3c(C(F)F)nc4ccccc43)n2)CC1 [Example 206] | 83% | 4.1 nM | 3300 nM | 4.4 nM
7 | CN(C)[C@H]1CC[C@H](Nc2nc(N3CCOCC3)nc(-n3c(C(F)F)nc4ccccc43)n2)CC1 [Example 4, trans-N′-{4-[2-(difluoromethyl)-1H-benzimidazol-1-yl]-6-morpholin-4-yl-1,3,5-triazin-2-yl}-N,N-dimethylcyclohexane-1,4-diamine] | 83% | 1.8 nM | 2000 nM | 33 nM
8 | CN(C)CC(=O)N[C@H]1CC[C@H](Oc2cc(-n3c(C(F)F)nc4ccccc43)nc(N3CCOCC3)n2)CC1 [Example 24, N-[trans-4-({6-[2-(difluoromethyl)-1H-benzimidazol-1-yl]-2-morpholin-4-ylpyrimidin-4-yl}oxy)cyclohexyl]-N,N-dimethylglycinamide hydrochloride] | 79% | 4.2 nM | > 3000 nM | 5.2 nM
9 | CCN(C(C)C(C)(C)O)[C@H]1CC[C@H](CNc2nc(N3CCOCC3)cc(-n3c(C(F)F)nc4ccccc43)n2)CC1 (some centres unmarked) [Example 471] | – | 1.3 nM | 1700 nM | 8.1 nM
10 | FC[C@@H]1CCN1[C@H]1CC[C@H](CNc2cc(-n3c(C(F)F)nc4ccccc43)nc(N3CCOCC3)n2)CC1 [Example 539] | – | 0.84 nM | 2200 nM | 7.6 nM
11 | C=CCN(C(C)COC)[C@H]1CC[C@H](CNc2nc(N3CCOC[C@@H]3C)cc(-n3c(C(F)F)nc4ccccc43)n2)CC1 (some centres unmarked) [Example 491] | – | 1.8 nM | 570 nM | 4.5 nM
12 | COCC(C)N[C@H]1CC[C@H](CNc2nc(N3CCOC[C@@H]3C)cc(-n3c(C(F)F)nc4ccccc43)n2)CC1 (some centres unmarked) [Example 446] | – | 1.7 nM | 1700 nM | 8.9 nM
13 | FC(F)c1nc2ccccc2n1-c1cc(N2CCOCC2)nc(NC[C@H]2CC[C@H](N3CCCCC3)CC2)n1 [Example 202] | 80% | – | – | –
14 | COC[C@@H]1CCCN1[C@H]1CC[C@@H](CNc2cc(-n3c(C(F)F)nc4ccccc43)nc(N3CCOCC3)n2)CC1 [Example 512] | – | 10 nM | > 10000 nM | 23 nM
15 | CCN(CCOC)[C@H]1CC[C@H](CNc2nc(N3CCOCC3)cc(-n3c(C(F)F)nc4ccccc43)n2)CC1 [Example 363] | – | 1.4 nM | 1400 nM | 18 nM
16 | CC(C)=CCN(CC(C)(C)O)[C@H]1CC[C@H](CNc2nc(N3CCOCC3)cc(-n3c(C(F)F)nc4ccccc43)n2)CC1 [Example 449] | – | 2.2 nM | 1300 nM | 14 nM
17 | CC(N(C)[C@H]1CC[C@H](CNc2nc(N3CCOC[C@H]3C)cc(-n3c(C(F)F)nc4ccccc43)n2)CC1)C(C)(C)O (some centres unmarked) [Example 506] | – | 0.75 nM | 590 nM | 4.3 nM
18 | COCCN(CC(C)F)[C@H]1CC[C@H](CNc2nc(N3CCOCC3)cc(-n3c(C(F)F)nc4ccccc43)n2)CC1 (some centres unmarked) [Example 374] | – | 2 nM | 1200 nM | 6.4 nM
19 | COCC(C)N(C)[C@H]1CC[C@H](CNc2nc(N3CCOC[C@H]3C)cc(-n3c(C(F)F)nc4ccccc43)n2)CC1 (some centres unmarked) [Example 507] | – | 0.38 nM | 490 nM | 4.9 nM
20 | CCN(CC)[C@H]1CC[C@H](CNc2nc(N3CCOCC3)cc(-n3c(C(F)F)nc4ccccc43)n2)CC1 [Example 424] | – | 1.7 nM | 3600 nM | 6 nM
21 | CC#CCN(CC(C)(C)O)[C@H]1CC[C@H](CNc2nc(N3CCOCC3)cc(-n3c(C(F)F)nc4ccccc43)n2)CC1 [Example 437] | – | 3.6 nM | 2200 nM | 7.1 nM
22 | COCC(C)N(C)[C@H]1CC[C@H](CNc2nc(N3CCOC[C@@H]3C)cc(-n3c(C(F)F)nc4ccccc43)n2)CC1 (some centres unmarked) [Example 447] | – | 0.77 nM | 2900 nM | 5.3 nM
23 | COCCN[C@H]1CC[C@H](CNc2cc(-n3c(C(F)F)nc4ccccc43)nc(N3CCOCC3)n2)CC1 [Example 496] | – | 1.7 nM | 7600 nM | 17 nM
24 | CN(CC(C)(C)O)[C@H]1CC[C@H](CNc2nc(N3CCOCC3)cc(-n3c(C(F)F)nc4ccccc43)n2)CC1 [Example 375] | – | 1.2 nM | 1600 nM | 12 nM
25 | CN(CC(C)(C)O)[C@H]1CC[C@H](CNc2cc(-n3c(C(F)F)nc4ccccc43)nc(N3CCOCC3)n2)CC1 [Example 495] | – | 1.7 nM | 6700 nM | 14 nM
26 | COC[C@@H]1CCCN1[C@H]1CC[C@H](CNc2cc(-n3c(C(F)F)nc4ccccc43)nc(N3CCOCC3)n2)CC1 [Example 513] | – | 0.64 nM | 3100 nM | 3.5 nM
27 | FC(F)c1nc2ccccc2n1-c1cc(N2CCOCC2)nc(NC[C@H]2CC[C@H](N3CCOCC3)CC2)n1 [Example 201] | 76% | – | – | –
